Key:
[1] = test system: ApoE; test: brain ApoE levels in ApoE KI mice after miR-195 over-expression; format: in vivo; conditions: ApoE4+/+ or ApoE3+/+ mouse brains
Description: (§1) Stereotaxic injection and behavior studies. Eight to nine weeks old male and female ApoE3^+/+ and ApoE4^+/+ KI mice without 5×FAD background (N=19-23/group), or with 5×FAD background (N=15-17/group) were placed in the stereotaxic apparatus with AAV2 or scramble virus administered into the dorsal CA1 regions of bilateral hippocampal brain regions using pressure injection (Labonte B et al., Nat Med 2017, and Passini M A et al., The Journal of neuroscience 2006). Injection volumes (0.5-2.0 μl) were delivered over 10 min to avoid tissue damage. […]
(§2) Brain and neuronal sample preparation and biochemical analysis. […] Levels of Aβ42, Aβ40, pTau, Tau and ApoE were determined using high-sensitive ELISA kits. […]
(§3) Statistical analysis. […] Levels of miR-195-5p and miR-374 were normalized to U6 and RNU6B (internal controls) while synj1 mRNA normalized to GAPDH and 18s, and then expressed as Log2fold of changes when compared to controls. Levels of synj1, dyn1, pTau, Tau, and holoAPP were normalized to β-actin levels and expressed as a percentage of the control. Absolute Aβ42, Aβ40, pTau, Tau, and ApoE concentrations were quantitatively determined by ELISA and expressed as a percentage of the control. […] Pearson correlation coefficients were calculated to determine the linear relationship between the two variables. […]

[2] = test system: pTau, total Tau; test: brain pTau and total Tau in EFAD mice after miR-195-5p over-expression; format: in vivo; conditions: ApoE4+/+ FAD mouse hippocampus
Description: as §1, §2, §3

[3] = test system: lysosomes of ApoE4+/+ / ApoE3+/+ neurons; test: lysosome size and number (Lysotracker, confocal) in neurons of iPSC-derived neuron and astrocyte co-culture; format: cell-based, human
Description: (§4) Mouse Neuronal and human iPSC culture. Primary cortical neurons were cultured (Zhu L et al., Proc Natl Acad Sci USA 2015, and Zhu L et al., J Biol Chem 2013) before being fixed and stained for confocal microscopy analysis (Zeiss LSM) (Berg I et al., Nat Protoc 2010). In some conditions, bovine serum albumin (BSA) or receptor-associated protein (RAP) was included in the cultured media (N=3/group). Alternatively, cultured neurons were transfected with adeno-associated virus 2 (AAV2)-containing miR-195-5p or miR-374 or scramble controls for 5 days before subjected to analysis. The ApoE4^+/+ and ApoE3^+/+ iPSCs were differentiated into neural progenitor cells (NPCs) by dual SMAD inhibition followed by neural rosette selection and forebrain-specific patterning by 20 ng/ml FGF2 exposure (Bowles K R et al., PloS one 2019, and Tcw J et al., Stem cell reports 2017). These NPCs were purified by MACS for CD271^−/CD133^+ (Bowles K R et al., PloS one 2019) and differentiated to cortical neurons (Bardy C et al., Proc Natl Acad Sci USA 2015, and Paquet D et al., Nature 2016) and a homogeneous population of astrocytes (Tcw J et al., Stem cell reports 2017, and Shaltouki A et al., Stem Cells 2013) before subjected to viral transfection and confocal microscopy analysis. Alternatively, mouse cortical neurons derived from ApoE4^+/+ and ApoE3^+/+ KI mice with synj1^+/+ or synj1^−/− genotypes were co-cultured with ApoE4^+/+ and ApoE3^+/+ iPSC-derived pure astrocytes. In some experiments, cultured neurons were transfected with AAV2-containing miR-195-5p, scramble controls or miR195 inhibitors that specifically prevent miR-195-5p binding to its target mRNA before co-culturing with iPSC-derived astrocytes. Cultured iPSC-derived neurons and astrocytes were then incubated with lysotracker red for various time periods before fixation and double-stained for pTau and a nuclear marker DAPI (blue) for confocal microscopy analysis (Zeiss). N=4-5/condition.

[4] = test system: synaptojanin 1 (synj1); test: synj1 expression in cultured mouse neurons after AAV2 miRNA over-expression (western blot, qPCR); format: cell-based
Description: as §4
(§5) Brain and neuronal sample preparation and biochemical analysis. Snap-frozen mouse hemi-brains or cultured neurons were harvested in lysis buffer (Lane R F et al., The Journal of neuroscience 2010) and processed via step-wise solubilization (Lane R F et al., The Journal of neuroscience 2010, and Kawarabayashi T et al. The Journal of neuroscience 2001) followed by SDS-PAGE to determine levels of synj1, dyn1, holoAPP, and CTFs. Levels of Aβ42, Aβ40, pTau, Tau and ApoE were determined using high-sensitive ELISA kits. Some tissue was used for miRNA and RNA extraction followed by qPCR and RNA-seq analysis. Some animals underwent perfusion followed by brain tissue section for immunohistochemical staining of amyloid plaque, synj1 and pTau.
as §3, with “analysis. The sample sizes of each experiment were chosen based on power calculations derived from previous similar studies which allowed the determination of group sizes needed to achieve statistically significant results.” for “analysis.”

[5] = test system: Aβ / amyloid plaque; test: brain oligomer Aβ42, soluble Aβ and amyloid plaque burden in EFAD mice after miR-195-5p over-expression; format: in vivo, mouse
Description: Stereotaxic injection and behavior studies. Eight to nine weeks old male and female ApoE3^+/+ and ApoE4^+/+ KI mice without 5×FAD background (N=19-23/group), or with 5×FAD background (N=15-17/group) were placed in the stereotaxic apparatus with AAV2 or scramble virus administered into the dorsal CA1 regions of bilateral hippocampal brain regions using pressure injection (Labonte B et al., Nat Med 2017, and Passini M A et al., The Journal of neuroscience 2006). Injection volumes (0.5-2.0 μl) were delivered over 10 min to avoid tissue damage. Six to nine months after viral delivery, mice were tested with the NOR task (Zhu L et al., Proc Natl Acad Sci USA 2015, Elder G A et al., J Neurotrauma 2012, and Howlett D R et al., Brain Res 2004). Mice were randomized for genotype and sex, and blinded throughout the behavior data collection and analysis, surgical manipulations, and sample collection.
as §5, with “Some animals underwent perfusion followed by brain tissue section for immunohistochemical staining of amyloid plaque, synj1 and pTau.” left out
as §3

[6] = ApoE3+/+ neurons with miR-195 over-expression
[7] = ApoE4+/+ neurons with miR-195 over-expression
[8] = ApoE4+/+ and ApoE3+/+ FAD mouse brains

UAGCAGCACAGAAAUAUUGGC (chemistry not given here) [miR-195-5p, over-expressed via AAV2-containing miR-195-5p from ABM Inc]
ApoE levels [1]: No significant changes
ApoE levels ([1]; listed as miR-195): no significant changes
p-Tau [2]: reduction
lysosomal phenotypes compared to baseline ([3]; ApoE3+/+ neurons): No significant differences
neurons with lysosome diameter between 0 to 10 μm ([3]; ApoE4+/+ neurons): 53.3%
neurons with >10 lysosomes/cell ([3]; ApoE4+/+ neurons, baseline 18.4%): 1.7%
synj1 mRNA levels [4, 6]: −1.084±0.035 log2FC
synj1 protein levels [4, 6]: 70.9±21.2 % of controls
synj1 mRNA levels [4, 7]: −7.751±0.043 log2FC
synj1 protein levels [4, 7]: 48.0±9.84 % of controls
synj1 protein levels ([4]; ApoE-/- hippocampal neurons in presence of ApoE4-CM, miRNA over-expression, N=4/group): 62.87±4.48 % of controls
amyloid plaque burden (plaque numbers and plaque density) [5, 8]: dramatic reduction
brain oligomer Aβ42 measured by ELISA [5, 8]: dramatic reduction
soluble Aβ40, Aβ42 levels ([5]; E4FAD and E3FAD mouse brains): no significant changes
